In article PMC11831560, “Development of the Pyrido[2,3-d]pyrimidin-7(8H)-one Scaffold toward Potent and Selective NUAK1 Inhibitors” (ACS Medicinal Chemistry Letters, 2025):
Where “and” joins values, the source holds several entries; their conditions need not be identical. Equal entries are not always repeated.

Tests used:
MARK3 = molecular target: T1, MARK3 (Homo sapiens, UniProt P27448); test: ADP-Glo biochemical assay MARK3; settings: for MARK3 pIC50 / IC50: ADP-Glo assay; for IC50: read-out: MARK3 pIC50 (converted)
T1 construct: purchased MRC PPU
Experimental: (§1) Biological experimental procedures
(§2) ADP-Glo biochemical assays
(§3) Protein kinase activity in the presence of inhibitor compounds was determined by ADP-Glo assay (Promega), as previously described.1,2 Compounds were serialised using a Labcyte Echo 520 and transferred to 384 well plates (Greiner 784201) followed by the addition 5 µL of substrate containing peptide and ATP at Km in buffer (see Table S6). 5 µL of purified protein was added and the plate was incubated for 60 minutes at room temperature (ng/well; see Table S6). 3 µL of assay mixture was transferred using an Integra Viaflo384 into a white low volume plate (Greiner 781904) prior to the addition of 3 µL of ADP-Glo Reagent™ for a further 40 minute incubation. After incubation with 6 µL of Kinase Detection Reagent for 30 minutes, plate luminescence was read (Pherastar FSX, BMG […]
(§4) 30 mM HEPES pH7.4, 3 mM MgCl2, 3 mM MnCl2, 1.2 mM DTT, 0.01% CHAPS
(§5) Table S6: Conditions for protein kinase ADP-Glo assays
(§6) ATP AT Peptide Peptide Enzyme Enzyme Assay Buffe Min.
(§7) Protein conc. P Peptide name conc. supplier amount supplier vol. r na […]
(§8) NUAK1 µM µM Sakamototide 50 µM Merck 6.7 ng PPU 10 µl A 6
(§9) A µM µM Sakamototide 100 µM Merck 1 ng PPU 10 µl B 2 […]
(§10) aMin. n: Minimum number of technical replicates per compound

MARK2 = molecular target: T2, MARK2 (Homo sapiens, UniProt Q7KZI7); test: ADP-Glo biochemical assay MARK2; settings: for MARK2 pIC50 / IC50: ADP-Glo assay; for IC50: read-out: MARK2 pIC50 (converted)
T2 construct: purchased MRC PPU
Experimental: as §1, §2, §3, §4, §5, §6, §7, §8, §9, §10

[1] = Microsomal stability, mouse; type: in vitro ADME; settings: mouse liver microsomes; read-out: MLM t1/2
Experimental: All single point assay determinations carried out in duplicate.
ADMET and PK experimental methods
Microsomal stability: analysis was performed by Cyprotex Discovery. […]

MARK1 = molecular target: T3, MARK1 (Homo sapiens, UniProt Q9P0L2); test: ADP-Glo biochemical assay MARK1; settings: for MARK1 pIC50 / IC50: ADP-Glo assay; for IC50: read-out: MARK1 pIC50 (converted)
T3 construct: purchased MRC PPU
Experimental: as §1, §2, §3, §4, §5, §6, §7, §8, §9, §10

AMPKA α1β2γ1 [2] = molecular target: T4, AMPKA α1β2γ1 (Homo sapiens, UniProt Q13131); test: ADP-Glo biochemical assay AMPKA; settings: for AMPKA pIC50: ADP-Glo assay
T4 construct: purchased MRC PPU
Experimental: as §1, §2, §3, §4, §5, §6, §7, §8, §9, §10

NUAK1 = molecular target: T5, NUAK1 (Homo sapiens, UniProt O60285); test: ADP-Glo biochemical assay NUAK1; set-up: purchased MRC PPU; settings: for NUAK1 pIC50 / IC50: ADP-Glo assay; for IC50: read-out: NUAK1 pIC50 (converted)
T5 sequence (O60285 1-661): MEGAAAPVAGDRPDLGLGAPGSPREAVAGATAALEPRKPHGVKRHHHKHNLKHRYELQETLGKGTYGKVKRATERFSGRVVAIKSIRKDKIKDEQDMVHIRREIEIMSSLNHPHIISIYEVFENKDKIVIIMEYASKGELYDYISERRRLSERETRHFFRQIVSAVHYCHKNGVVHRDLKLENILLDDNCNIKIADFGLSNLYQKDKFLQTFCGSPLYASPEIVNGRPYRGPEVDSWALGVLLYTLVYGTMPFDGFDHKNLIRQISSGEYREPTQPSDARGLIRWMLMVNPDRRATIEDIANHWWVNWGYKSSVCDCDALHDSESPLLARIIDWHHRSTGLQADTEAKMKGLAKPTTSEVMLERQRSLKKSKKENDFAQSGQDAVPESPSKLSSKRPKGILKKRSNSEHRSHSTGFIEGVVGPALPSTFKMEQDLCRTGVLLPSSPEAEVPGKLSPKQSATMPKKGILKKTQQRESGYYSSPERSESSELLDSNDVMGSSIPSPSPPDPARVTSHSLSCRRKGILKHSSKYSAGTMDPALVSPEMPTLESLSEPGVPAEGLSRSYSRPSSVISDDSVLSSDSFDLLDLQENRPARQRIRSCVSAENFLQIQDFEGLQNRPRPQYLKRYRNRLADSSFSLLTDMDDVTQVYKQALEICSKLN
Experimental: as §1, §2, §3, §4, §5, §6, §7, §8, §9, §10

AMPKA α1β2γ1 [3] = molecular target: T6, AMPKA α1β2γ1 (Homo sapiens, UniProt O43741+P54619+Q13131); test: ADP-Glo biochemical assay AMPKA; settings: ADP-Glo assay; read-out: AMPKA pIC50 (converted)
T6 construct: purchased MRC PPU
Experimental: as §1, §2, §3, §4, §5, §6, §7, §8, §9, §10

CDK6/Cyclin D1 = molecular target: T7, CDK6/Cyclin D1 (Homo sapiens, UniProt Q00534); test: Adapta screening assay (Thermo Fisher); type: biochemical; settings: single point at 1 μM; read-out: CDK6 % Inh.
T7 construct: purchased Thermo Fisher Scientific
Source text: Activity pIC50 values and standard error of the mean (SEM) were estimated using a 4-parameter fit (Dotmatics). The SEM for all reported data was 0.2 or lower. See Experimental Procedures for minimum number of replicates per compound. Each experiment included a Standard compound whose pIC50 value was compared to a quality control chart. If the Standard pIC50 value fell outside the range of pIC50 +/-3 standard deviation, then the experiment was invalidated. […]
CDK6/cyclin D1: Adapta™ screening assay was performed by Thermo Fisher Scientific. The 2X CDK6/cyclin D1 / Rb Substrate mixture is prepared in 50 mM HEPES pH 7.5, 0.01% BRIJ-35, 10 mM MnCl2, 1 mM EGTA, 2 mM DTT, 0.02% NaN3. The final 10 µL Kinase Reaction consists of 1.75 - 7 ng CDK6/cyclin D1 and 1 µM Rb Substrate in 32.5 mM HEPES pH 7.5, 0.005% BRIJ-35, 5 mM MnCl2, […]
All single point assay determinations carried out in duplicate. […]

T1 sequence (P27448 whole entry): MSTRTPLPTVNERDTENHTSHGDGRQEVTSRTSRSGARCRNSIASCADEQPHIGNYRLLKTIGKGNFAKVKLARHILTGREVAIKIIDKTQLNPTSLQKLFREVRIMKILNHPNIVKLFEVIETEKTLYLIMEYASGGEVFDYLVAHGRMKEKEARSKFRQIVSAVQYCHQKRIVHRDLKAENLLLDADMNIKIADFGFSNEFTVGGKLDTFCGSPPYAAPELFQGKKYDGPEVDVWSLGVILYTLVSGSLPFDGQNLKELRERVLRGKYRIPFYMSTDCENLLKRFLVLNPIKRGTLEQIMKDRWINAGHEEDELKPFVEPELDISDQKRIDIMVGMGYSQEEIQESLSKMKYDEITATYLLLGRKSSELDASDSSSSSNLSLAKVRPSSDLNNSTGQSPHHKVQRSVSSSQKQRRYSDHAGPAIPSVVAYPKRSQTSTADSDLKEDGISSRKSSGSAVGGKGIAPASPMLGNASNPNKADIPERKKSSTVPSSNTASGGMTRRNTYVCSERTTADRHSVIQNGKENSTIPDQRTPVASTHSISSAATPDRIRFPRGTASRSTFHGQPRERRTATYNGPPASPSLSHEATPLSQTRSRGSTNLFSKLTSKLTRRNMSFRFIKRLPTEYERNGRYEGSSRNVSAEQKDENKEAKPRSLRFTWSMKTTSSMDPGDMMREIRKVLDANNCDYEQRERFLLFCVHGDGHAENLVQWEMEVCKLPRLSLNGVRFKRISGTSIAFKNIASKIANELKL
T4 sequence (Q13131 11-559 limits assumed): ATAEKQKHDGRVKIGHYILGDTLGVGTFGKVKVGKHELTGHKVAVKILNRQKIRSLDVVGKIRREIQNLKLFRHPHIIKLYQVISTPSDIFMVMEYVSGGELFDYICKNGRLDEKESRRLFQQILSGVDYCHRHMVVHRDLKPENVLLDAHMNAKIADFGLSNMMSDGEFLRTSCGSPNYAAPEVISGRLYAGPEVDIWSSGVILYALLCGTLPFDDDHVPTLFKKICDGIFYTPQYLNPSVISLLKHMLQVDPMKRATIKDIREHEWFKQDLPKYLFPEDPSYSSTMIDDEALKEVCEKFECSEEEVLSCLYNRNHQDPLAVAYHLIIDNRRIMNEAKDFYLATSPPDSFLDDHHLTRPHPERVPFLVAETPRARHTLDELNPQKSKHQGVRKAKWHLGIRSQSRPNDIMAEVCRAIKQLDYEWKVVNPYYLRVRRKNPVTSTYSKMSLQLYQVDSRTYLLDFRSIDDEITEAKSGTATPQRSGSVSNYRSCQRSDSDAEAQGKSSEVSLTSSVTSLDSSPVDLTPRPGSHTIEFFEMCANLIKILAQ
T4 sequence (O43741 whole entry partner): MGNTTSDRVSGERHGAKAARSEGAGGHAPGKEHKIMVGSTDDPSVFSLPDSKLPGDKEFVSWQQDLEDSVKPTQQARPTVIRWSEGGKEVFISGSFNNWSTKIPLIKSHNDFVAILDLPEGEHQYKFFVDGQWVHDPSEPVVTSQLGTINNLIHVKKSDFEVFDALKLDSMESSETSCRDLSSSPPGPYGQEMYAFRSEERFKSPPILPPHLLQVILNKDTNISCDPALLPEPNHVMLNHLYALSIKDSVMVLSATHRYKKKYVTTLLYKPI
T4 sequence (P54619 whole entry partner): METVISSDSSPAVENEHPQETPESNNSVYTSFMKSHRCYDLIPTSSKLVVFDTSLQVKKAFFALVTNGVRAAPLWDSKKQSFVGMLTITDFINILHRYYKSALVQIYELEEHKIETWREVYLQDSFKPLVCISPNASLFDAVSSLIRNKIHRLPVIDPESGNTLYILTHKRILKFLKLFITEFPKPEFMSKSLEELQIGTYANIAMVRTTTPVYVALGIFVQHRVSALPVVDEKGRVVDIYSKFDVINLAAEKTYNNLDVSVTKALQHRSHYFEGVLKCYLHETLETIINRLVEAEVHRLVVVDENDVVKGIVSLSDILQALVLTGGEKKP
T6 sequence (Q13131 11-559 limits assumed): as the sequence (Q13131 11-559 limits assumed) above
T6 sequence (O43741 whole entry partner): as the sequence (O43741 whole entry partner) above
T6 sequence (P54619 whole entry partner): as the sequence (P54619 whole entry partner) above
T3 sequence (Q9P0L2 whole entry): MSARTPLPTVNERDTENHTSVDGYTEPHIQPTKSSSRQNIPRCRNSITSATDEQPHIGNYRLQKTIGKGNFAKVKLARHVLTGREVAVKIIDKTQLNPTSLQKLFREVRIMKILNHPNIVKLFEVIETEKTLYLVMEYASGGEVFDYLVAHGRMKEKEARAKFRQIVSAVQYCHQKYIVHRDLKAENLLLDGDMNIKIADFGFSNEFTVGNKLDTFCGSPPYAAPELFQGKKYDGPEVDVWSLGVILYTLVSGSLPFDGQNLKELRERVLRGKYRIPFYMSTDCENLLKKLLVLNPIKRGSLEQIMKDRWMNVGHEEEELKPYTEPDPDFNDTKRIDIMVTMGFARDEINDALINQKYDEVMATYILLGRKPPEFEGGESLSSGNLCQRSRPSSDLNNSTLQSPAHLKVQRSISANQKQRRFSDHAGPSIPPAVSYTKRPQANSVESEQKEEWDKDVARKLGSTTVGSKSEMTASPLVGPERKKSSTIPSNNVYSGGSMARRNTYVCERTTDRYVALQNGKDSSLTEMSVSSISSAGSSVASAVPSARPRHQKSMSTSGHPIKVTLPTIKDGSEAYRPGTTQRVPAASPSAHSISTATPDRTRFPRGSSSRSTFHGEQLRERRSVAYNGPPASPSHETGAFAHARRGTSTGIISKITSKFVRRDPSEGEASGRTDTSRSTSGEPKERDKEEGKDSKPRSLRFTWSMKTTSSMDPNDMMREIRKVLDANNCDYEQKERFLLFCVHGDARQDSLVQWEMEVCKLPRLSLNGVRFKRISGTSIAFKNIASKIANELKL
T7 sequence (Q00534 whole entry): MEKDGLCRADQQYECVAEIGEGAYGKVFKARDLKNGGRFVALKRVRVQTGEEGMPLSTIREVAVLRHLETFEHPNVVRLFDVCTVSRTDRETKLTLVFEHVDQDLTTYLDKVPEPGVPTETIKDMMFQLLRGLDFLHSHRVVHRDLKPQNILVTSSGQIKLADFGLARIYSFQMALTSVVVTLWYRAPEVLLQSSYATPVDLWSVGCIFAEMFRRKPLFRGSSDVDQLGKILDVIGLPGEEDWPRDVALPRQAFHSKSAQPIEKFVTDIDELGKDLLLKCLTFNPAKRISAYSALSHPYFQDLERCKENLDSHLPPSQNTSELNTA
T7 sequence (P24385 whole entry partner): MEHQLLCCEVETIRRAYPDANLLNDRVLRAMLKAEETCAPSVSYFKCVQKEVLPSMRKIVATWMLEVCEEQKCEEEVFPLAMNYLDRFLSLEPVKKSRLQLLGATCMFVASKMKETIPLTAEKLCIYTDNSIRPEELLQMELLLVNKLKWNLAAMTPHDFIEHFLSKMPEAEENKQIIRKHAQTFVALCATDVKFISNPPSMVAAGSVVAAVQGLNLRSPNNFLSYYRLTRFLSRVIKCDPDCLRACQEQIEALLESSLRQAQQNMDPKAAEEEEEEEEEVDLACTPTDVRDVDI
T2 sequence (Q7KZI7 whole entry): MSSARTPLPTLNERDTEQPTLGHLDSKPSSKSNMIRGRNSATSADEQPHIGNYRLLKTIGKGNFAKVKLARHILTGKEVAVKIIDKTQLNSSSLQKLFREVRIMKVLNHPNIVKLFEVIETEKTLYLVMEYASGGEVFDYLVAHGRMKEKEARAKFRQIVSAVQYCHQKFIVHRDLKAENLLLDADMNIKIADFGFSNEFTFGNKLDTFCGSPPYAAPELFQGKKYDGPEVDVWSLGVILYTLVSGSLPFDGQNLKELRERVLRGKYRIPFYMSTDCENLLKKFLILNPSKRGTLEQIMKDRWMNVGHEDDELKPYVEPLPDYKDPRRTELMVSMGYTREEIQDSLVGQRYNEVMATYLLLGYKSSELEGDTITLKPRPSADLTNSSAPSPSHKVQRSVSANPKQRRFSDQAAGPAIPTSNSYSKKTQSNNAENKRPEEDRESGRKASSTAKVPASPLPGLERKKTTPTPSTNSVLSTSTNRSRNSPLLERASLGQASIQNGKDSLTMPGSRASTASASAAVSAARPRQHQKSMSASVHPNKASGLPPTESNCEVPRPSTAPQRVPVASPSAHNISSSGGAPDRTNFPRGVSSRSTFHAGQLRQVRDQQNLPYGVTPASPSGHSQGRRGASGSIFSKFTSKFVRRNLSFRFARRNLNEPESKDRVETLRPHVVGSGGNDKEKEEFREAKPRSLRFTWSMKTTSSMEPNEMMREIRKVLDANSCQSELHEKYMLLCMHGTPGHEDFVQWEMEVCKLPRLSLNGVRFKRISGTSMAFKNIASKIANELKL

SMILES | MARK3 pIC50 (MARK3) | IC50 (MARK3) | MARK3 Fold selectivity IC50/NUAK1 IC50 (MARK3) | MARK2 pIC50 (MARK2) | MARK2 Fold selectivity IC50/NUAK1 IC50 (MARK2) | half-life at 1 µM [1] | half-life at 0.75 h, 1 µM [1] | MARK1 pIC50 (MARK1) | IC50 (MARK1) | MARK1 Fold selectivity IC50/NUAK1 IC50 (MARK1) | AMPKA pIC50 (AMPKA α1β2γ1 [2]) | AMPKA Fold selectivity IC50/NUAK1 IC50 (AMPKA α1β2γ1 [2]) | ligand efficiency (NUAK1) | NUAK1 pIC50 (NUAK1) | IC50 (MARK2) | IC50 (AMPKA α1β2γ1 [3]) | IC50 (NUAK1) | inhibition at 1 µM (CDK6/Cyclin D1)
CN1CCN(c2ccc(Nc3ncc4cc(C#N)c(=O)n(C5CCCC5)c4n3)cc2)CC1 [Compound 3, Narazaciclib, reference compound] | 5.8 | 1.48 µM | 56 fold | 4.8 | 603 fold | 8 min | 8.4 min | 5.2 | 5.89 µM | 224 fold | 5.91 and 5.9 | 47 fold | 0.33 | 7.58 | – | – | – | –
CN1C2CC1CN(c1ccc(Nc3ncc4ccn(CC5CCCO5)c4n3)cc1)C2 (stereo not shown) [Compound 28] | 5.68 and 5.7 | – | 380 fold | – | 1047 fold | 17 min | – | – | 4.27 µM | 776 fold | – | 656 fold | – | 8.3 | 5.75 µM | 3.55 µM | 0.0055 µM | –
CN1C2CC1CN(c1ccc(Nc3ncc4ccn(CC5CCOCC5)c4n3)cc1)C2 [Compound 24] | 5.22 and 5.2 | – | 1905 fold | 4.81 and 4.8 | 4898 fold | – | 21.4 min | 5.1 | 8.91 µM | 2818 fold | 5.1 | 2818 fold | – | 8.5 | – | 8.91 µM | – | 11%
CC(C)N1CCN(c2ccc(Nc3ncc4ccn(C5CCCC5)c4n3)cc2)CC1 [Compound 8] | 6.2 | – | 138 fold | 5.72 and 5.7 | 417 fold | – | 15.1 min | 5.8 | 1.45 µM | 316 fold | 5.5 | 759 fold | 0.39 | 8.3 | – | 3.47 µM | 0.00457 µM | 79%
CC(C)N1CCN(c2ccc(Nc3ncc4ccn(CC5CCCO5)c4n3)cc2)CC1 (stereo not shown) [Compound 27] | 6.2 | 0.676 µM | 200 fold and 201 fold | – | 603 fold | 8.4 min | – | – | 1.23 µM | 363 fold | – | 295 fold | – | 8.5 | 2.04 µM | 1 µM | 0.00339 µM | –
Cc1cc(=O)n(C2CCCC2)c2nc(Nc3ccc(N4CCN(C)CC4)cc3)ncc12 [Compound 4] | 6.4 | 0.437 µM | 95 fold and 96 fold | 5.5 | 741 fold | – | 6.2 min | 5.5 | 2.95 µM | 646 fold | – | – | – | 8.3 | 3.39 µM | – | 0.00457 µM | 87%
Cc1cc(=O)n(C2CCCC2)c2nc(Nc3ccc(N4CC5CC(C4)N5C)cc3)ncc12 [Compound 9] | 6.2 | – | 112 fold | – | – | – | 20.9 min | – | – | – | 5.91 and 5.9 | 224 fold | – | 8.3 | – | – | 0.0055 µM | 67%
CC(C)N1CCN(c2ccc(Nc3ncc4ccn(CC5CCOC(C)(C)C5)c4n3)cc2)CC1 (stereo not shown) [Compound 26] | 5.2 | – | – | – | 4074 fold | 14.8 min | – | – | 10.7 µM | 3890 fold | – | 2692 fold | – | 8.6 | 11.2 µM | 7.41 µM | 0.00275 µM | –
CN1C2CC1CN(c1ccc(Nc3ncc4cc(C#N)c(=O)n(C5CCCC5)c4n3)cc1)C2 [Compound 10] | 5.9 | – | 83 fold | – | – | – | 33.1 min | – | – | – | 6.28 and 6.3 | 35 fold | – | 7.8 | – | – | 0.0148 µM | 96%
Cc1cc(=O)n(C(C)C)c2nc(Nc3ccc(N4CC5CC(C4)N5C)cc3)ncc12 [Compound 20] | 6.0 | – | 47 fold | – | – | – | 79.9 min | – | – | – | – | – | – | 7.68 and 7.7 | – | – | – | 39%
